In patent US20120165403A1, “METHODS OF INHIBITING THE ACTIVITY OF HSP90 AND/OR ARYL HYDROCARBON RECEPTOR” (UNIVERSITY OF ROCHESTER, priority 2004, published 2012):

Key:
[1] = tested on: TCDD-mediated CYP1A1 gene induction; experiment: CYP1A1 gene induction in HepG2 cells; type: cell-based, human
[2] = tested on: hsp90; experiment: Affinity chromatography on EGCG-conjugated Sepharose, Hepa cytosol hsp90; type: binding, mouse
[3] = biological target: T1, AhR (Mus musculus, UniProt P30561); experiment: Affinity chromatography on EGCG-conjugated Sepharose, in vitro translated AhR; type: binding, murine; details: 35S-AhR in vitro translated in RRL
T1 construct: made in house; host or cells: coupled transcription/translation in rabbit reticulocyte lysate (TNT, Promega), 35S-labelled
T1 sequence (P30561 10-848): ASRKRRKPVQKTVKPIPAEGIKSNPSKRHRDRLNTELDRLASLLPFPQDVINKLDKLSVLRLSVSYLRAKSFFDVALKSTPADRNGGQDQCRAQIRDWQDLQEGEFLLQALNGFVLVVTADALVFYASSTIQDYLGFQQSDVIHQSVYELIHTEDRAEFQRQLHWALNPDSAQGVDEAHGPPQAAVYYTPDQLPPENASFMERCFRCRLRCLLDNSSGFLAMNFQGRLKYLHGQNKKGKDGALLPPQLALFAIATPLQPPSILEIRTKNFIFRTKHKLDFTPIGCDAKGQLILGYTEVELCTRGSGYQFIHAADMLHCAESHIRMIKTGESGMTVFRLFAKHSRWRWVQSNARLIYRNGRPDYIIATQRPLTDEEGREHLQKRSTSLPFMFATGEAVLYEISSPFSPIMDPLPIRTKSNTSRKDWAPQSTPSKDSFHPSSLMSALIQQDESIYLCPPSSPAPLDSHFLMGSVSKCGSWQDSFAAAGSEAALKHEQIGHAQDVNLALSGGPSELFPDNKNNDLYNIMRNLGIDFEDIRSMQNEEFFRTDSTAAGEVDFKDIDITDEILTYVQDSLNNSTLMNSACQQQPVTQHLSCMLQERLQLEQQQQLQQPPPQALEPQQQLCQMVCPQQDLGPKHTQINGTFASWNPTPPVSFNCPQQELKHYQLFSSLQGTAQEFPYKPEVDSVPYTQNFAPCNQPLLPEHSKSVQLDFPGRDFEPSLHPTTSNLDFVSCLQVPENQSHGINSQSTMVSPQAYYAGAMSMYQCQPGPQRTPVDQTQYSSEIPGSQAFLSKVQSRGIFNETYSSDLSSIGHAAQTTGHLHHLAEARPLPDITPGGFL
Excerpt: Murine AhR and ARNT cDNA (obtained from J. Whitlock and O. Hankinson, respectively) were inserted into pcDNA3 (Invitrogen, Carlsbad, Calif.). Chicken hsp90 constructs (FIG. 5), c90711hsp (wild-type), c90G94D (wild-type point mutant gly94→Asp (Grenert et al., J. Biol. Chem. 272:23843-23850 (1997), which is hereby incorporated by reference in its entirety), c90D92A (wild-type point mutant Asp92→Ala (Sullivan et al., J. Biol. Chem. 268:20373-20379 (1993), which is hereby incorporated by reference in its entirety), c90N221 (wild-type truncation mutant encoding a.a. 221-728 (Sullivan et al., J. Biol. Chem. 268:20373-20379 (1993), which is hereby incorporated by reference in its entirety)), c90N303 (a.a. 303-728) and c90N538 (a.a. 538-728) were kind gifts from Dr. D. Toft (Rochester, Minn.). The C-terminal truncation mutant c900507 (a.a. 1-221) was obtained from Dr. L. Neckers (Rockville, Md.) (Grenert et al., J. Biol. Chem. 272:23843-23850 (1997); Marcu et al., J. Biol. Chem. 275:37181-37186 (2000), which are hereby incorporated by reference in their entirety). Human p23 cDNA was excised from pQE80-p23 (obtained from W. Chan Stockton, Calif.) by sequential digests using the restriction enzymes Sad (3′-end) and BamHI (5′-end) and inserted into the similarly digested pET28a (Novagen, Madison, Wis.). […]

In the case of `O=C(O[C@@H]1Cc2c(O)cc(O)cc2O[C@@H]1c1cc(O)c(O)c(O)c1)c1cc(O)c(O)c(O)c1` [EGCG, epigallocatechin gallate], the “inhibition of TCDD-mediated CYP1A1 gene induction” value [1] is reported as “inhibited TCDD-mediated CYP1A1 gene induction”, the “binding of hsp90 to EGCG-Sepharose” value [2] is reported as “also eluted from EGCG-Sepharose” and the “binding of AhR to immobilized EGCG” value [3] is reported as “not able to bind immobilized EGCG”.
